The values that follow are results of earlier work, collected in patent US9012467B2, “Compositions for intratumoral administration” (Covidien LP, priority 2009, dated 2015).

The test system of this series is mice. To be noted: acute toxicity.

Take `COC(=O)C1=CO[C@@H](O)[C@@H]2C(CO)=CC[C@H]12` [Genipin, genipin]: the LD50 i.v. is on record as 382 mg/k.
